Measured values taken from ChEMBL document CHEMBL3885881, “DrugMatrix”.

Species on record: Rattus norvegicus
Type: toxicity, organism-based, Sprague-Dawley
Conditions: in vivo, po, route oral GAVAGE, vehicle 100 % SALINE; for ABSOLUTE EOSINOPHIL / ABSOLUTE LYMPHOCYTE / ABSOLUTE MONOCYTE / ABSOLUTE SEGMENTED NEUTROPHIL / BASOPHIL / EOSINOPHIL / ERYTHROCYTE COUNT / HEMATOCRIT / HEMOGLOBIN / LEUKOCYTE COUNT / LYMPHOCYTE / MEAN CORPUSCULAR HEMOGLOBIN / MEAN CORPUSCULAR HEMOGLOBIN CONCENTRATION / MEAN CORPUSCULAR VOLUME / MONOCYTE / NEUTROPHIL / NUCLEATED RED BLOOD CELLS / PLATELET COUNT: tissue Blood; for ALANINE AMINOTRANSFERASE / ALBUMIN / ALKALINE PHOSPHATASE / ASPARTATE AMINOTRANSFERASE / BLOOD UREA NITROGEN / CARBON DIOXIDE / CHLORIDE / CHOLESTEROL / CREATINE PHOSPHOKINASE / CREATININE / GLUCOSE / LACTATE DEHYDROGENASE / LIPASE / PHOSPHORUS / POTASSIUM / SODIUM / TOTAL BILIRUBIN / TOTAL PROTEIN / URIC ACID: tissue Plasma
[1] = 3000 mg/kg, 24 h, dose level Low, time 1 day
[2] = 6000 mg/kg, 6 h, dose level High, time 0.25 day
[3] = 6000 mg/kg, 24 h, dose level High, time 1 day

Description: DrugMatrix - Regimen: Single

SMILES: CCO [ALCOHOL]
- ABSOLUTE EOSINOPHIL [1]: 30.5 CELLS/uL
- ABSOLUTE LYMPHOCYTE [1]: 9902 CELLS/uL
- ABSOLUTE MONOCYTE [1]: 124.33 CELLS/uL
- ABSOLUTE SEGMENTED NEUTROPHIL [1]: 1059.83 CELLS/uL
- BASOPHIL [1]: 0%
- EOSINOPHIL [1]: 0.17%
- ERYTHROCYTE COUNT [1]: 5.39 x10E6/uL
- HEMATOCRIT [1]: 34.67%
- HEMOGLOBIN [1]: 13.7 G/DL
- LEUKOCYTE COUNT [1]: 11.12 x10E3/uL
- LYMPHOCYTE [1]: 88.17%
- MEAN CORPUSCULAR HEMOGLOBIN [1]: 25.42 pg
- MEAN CORPUSCULAR HEMOGLOBIN CONCENTRATION [1]: 39.57 G/DL
- MEAN CORPUSCULAR VOLUME [1]: 64.33 fL
- MONOCYTE [1]: 1.17%
- NEUTROPHIL [1]: 10.5%
- NUCLEATED RED BLOOD CELLS [1]: 0 /100WBC
- PLATELET COUNT [1]: 1071.33 x10E3/uL
- ALANINE AMINOTRANSFERASE [1]: 70.67 u/L
- ALBUMIN [1]: 4.18 G/DL
- ALKALINE PHOSPHATASE [1]: 267 u/L
- ASPARTATE AMINOTRANSFERASE [1]: 95.33 u/L
- BLOOD UREA NITROGEN [1]: 11.67 mg/dL
- CARBON DIOXIDE [1]: 35.67 mmol/L
- CHLORIDE [1]: 99.5 MEQ/L
- CHOLESTEROL [1]: 80.17 mg/dL
- CREATINE PHOSPHOKINASE [1]: 199.5 u/L
- CREATININE [1]: 0.21 mg/dL
- GLUCOSE [1]: 141 mg/dL
- LACTATE DEHYDROGENASE [1]: 59.67 u/L
- LIPASE [1]: 9.67 u/L
- PHOSPHORUS [1]: 10.12 mg/dL
- POTASSIUM [1]: 5.58 MEQ/L
- SODIUM [1]: 145.6 MEQ/L
- TOTAL BILIRUBIN [1]: 0.17 mg/dL
- TOTAL PROTEIN [1]: 6.1 G/DL
- URIC ACID [1]: 0.45 mg/dL
- ABSOLUTE EOSINOPHIL [2]: 29.17 CELLS/uL
- ABSOLUTE LYMPHOCYTE [2]: 14165.5 CELLS/uL
- ABSOLUTE MONOCYTE [2]: 257.5 CELLS/uL
- ABSOLUTE SEGMENTED NEUTROPHIL [2]: 3164.5 CELLS/uL
- BASOPHIL [2]: 0%
- EOSINOPHIL [2]: 0.17%
- ERYTHROCYTE COUNT [2]: 5.58 x10E6/uL
- HEMATOCRIT [2]: 37.53%
- HEMOGLOBIN [2]: 13.8 G/DL
- LEUKOCYTE COUNT [2]: 17.62 x10E3/uL
- LYMPHOCYTE [2]: 81.33%
- MEAN CORPUSCULAR HEMOGLOBIN [2]: 24.78 pg
- MEAN CORPUSCULAR HEMOGLOBIN CONCENTRATION [2]: 36.83 G/DL
- MEAN CORPUSCULAR VOLUME [2]: 67.33 fL
- MONOCYTE [2]: 1.33%
- NEUTROPHIL [2]: 17.17%
- NUCLEATED RED BLOOD CELLS [2]: 0 /100WBC
- PLATELET COUNT [2]: 1061.5 x10E3/uL
- ALANINE AMINOTRANSFERASE [2]: 46 u/L
- ALBUMIN [2]: 3.8 G/DL
- ALKALINE PHOSPHATASE [2]: 242.17 u/L
- ASPARTATE AMINOTRANSFERASE [2]: 95.83 u/L
- BLOOD UREA NITROGEN [2]: 12.33 mg/dL
- CARBON DIOXIDE [2]: 17.17 mmol/L
- CHLORIDE [2]: 105.33 MEQ/L
- CHOLESTEROL [2]: 77 mg/dL
- CREATINE PHOSPHOKINASE [2]: 431.5 u/L
- CREATININE [2]: 0.13 mg/dL
- GLUCOSE [2]: 194.5 mg/dL
- LACTATE DEHYDROGENASE [2]: 355.33 u/L
- LIPASE [2]: 9.33 u/L
- PHOSPHORUS [2]: 16.82 mg/dL
- POTASSIUM [2]: 5.94 MEQ/L
- SODIUM [2]: 144.57 MEQ/L
- TOTAL BILIRUBIN [2]: 0.0667 mg/dL
- TOTAL PROTEIN [2]: 5.12 G/DL
- URIC ACID [2]: 2.45 mg/dL
- ABSOLUTE EOSINOPHIL [3]: 0 CELLS/uL
- ABSOLUTE LYMPHOCYTE [3]: 13674.83 CELLS/uL
- ABSOLUTE MONOCYTE [3]: 258.33 CELLS/uL
- ABSOLUTE SEGMENTED NEUTROPHIL [3]: 983.5 CELLS/uL
- BASOPHIL [3]: 0%
- EOSINOPHIL [3]: 0%
- ERYTHROCYTE COUNT [3]: 5.27 x10E6/uL
- HEMATOCRIT [3]: 34.4%
- HEMOGLOBIN [3]: 13.68 G/DL
- LEUKOCYTE COUNT [3]: 14.92 x10E3/uL
- LYMPHOCYTE [3]: 91.33%
- MEAN CORPUSCULAR HEMOGLOBIN [3]: 26.03 pg
- MEAN CORPUSCULAR HEMOGLOBIN CONCENTRATION [3]: 39.82 G/DL
- MEAN CORPUSCULAR VOLUME [3]: 65.33 fL
- MONOCYTE [3]: 1.83%
- NEUTROPHIL [3]: 6.83%
- NUCLEATED RED BLOOD CELLS [3]: 0 /100WBC
- PLATELET COUNT [3]: 1124.67 x10E3/uL
- ALANINE AMINOTRANSFERASE [3]: 81 u/L
- ALBUMIN [3]: 3.95 G/DL
- ALKALINE PHOSPHATASE [3]: 284.5 u/L
- ASPARTATE AMINOTRANSFERASE [3]: 90.67 u/L
- BLOOD UREA NITROGEN [3]: 11.5 mg/dL
- CARBON DIOXIDE [3]: 32.5 mmol/L
- CHLORIDE [3]: 100.67 MEQ/L
- CHOLESTEROL [3]: 68.83 mg/dL
- CREATINE PHOSPHOKINASE [3]: 207.83 u/L
- CREATININE [3]: 0.3 mg/dL
- GLUCOSE [3]: 144 mg/dL
- LACTATE DEHYDROGENASE [3]: 74 u/L
- LIPASE [3]: 9 u/L
- PHOSPHORUS [3]: 10.7 mg/dL
- POTASSIUM [3]: 5.34 MEQ/L
- SODIUM [3]: 145 MEQ/L
- TOTAL BILIRUBIN [3]: 0.15 mg/dL
- TOTAL PROTEIN [3]: 5.78 G/DL
- URIC ACID [3]: 0.53 mg/dL
